Columns and labels:
Format in all cases: in vivo
[1] = test system: fall armyworm larvae (Spodoptera frugiperda); assay: Spodoptera frugiperda spray test; conditions: 168 h, maize leaf sections, after 7 days
Outline: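 Compound dissolved in acetone/dimethylformamide, diluted in water containing 1000 ppm alkylarylpolyglycol ether emulsifier and sprayed onto maize leaf sections. Dried sections were infested with larvae; % mortality scored after 7 days (100% = all caterpillars killed, 0% = none).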

[2] = test system: adult brown dog ticks (Rhipicephalus sanguineus); assay: Rhipicephalus sanguineus in-vitro contact test, adult brown dog ticks; conditions: 48 h, 5 μg/cm^2 (=500 g/ha), after 48 hours, read-out: efficacy (ticks dead or moribund)
Description: Rhipicephalus sanguineus—In-Vitro Contact Tests with Adult Brown Dog Ticks
(§1) 9 mg compound is solved in 1 mL acetone and diluted with acetone to the desired concentration. 250 of the test solution is filled in 25 mL glass test tubes and homogeneously distributed on the inner walls by rotation and tilting on a shaking device (2 h at 30 rpm). With a compound concentration of 900 ppm, an inner surface of 44.7 cm^2 and a homogeneous distribution, a dose of 5 μg/cm^2 is achieved.
(§2) After the solvent has evaporated, each test tube is filled with 5-10 adult brown dog ticks (Rhipicephalus sanguineus), closed with a perforated lid and incubated in a lying position at room temperature and relative humidity. After 48 hours efficacy is determined. The ticks are patted on the ground of the tubes and are incubated on a heating plate at 45-50° C. for at most 5 minutes Immotile or uncoordinated moving ticks, which are not able to escape the heat by climbing upwards, are marked as dead or moribund.
An efficacy of 100% means all ticks are dead or moribund; 0% means no ticks are dead or moribund.

[3] = test system: larvae of the banded cucumber beetle (Diabrotica balteata); assay: Diabrotica balteata spray test; conditions: 168 h, after 7 days, read-out: efficacy (seedling growth); for pest or weed control at 6.4 µg/disc, 20 g/ha: 20 g/ha (=6.4 μg/well); for pest or weed control at 32 µg/disc, 100 g/ha: 100 g/ha (=32 μg/well)
Outline: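 Germinated wheat seedlings (5 per well, on agar) sprayed with compound in acetone/DMF with emulsifier-containing water, then infested with 10–20 Diabrotica balteata larvae. Efficacy (%) scored after 7 days from seedling growth: 100% = growth as untreated uninfested control, 0% = no seedlings grown.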

[4] = test system: Rhipicephalus (Boophilus) microplus larvae (strain Parkhurst, resistant against synthetic pyrethroids); assay: Rhipicephalus (Boophilus) microplus in-vitro contact test, larval cattle tick; conditions: after 48 hours, read-out: efficacy (larvae dead or moribund); for pest or weed control at 1 µg/cm2, 100 g/ha: 1 μg/cm^2 (=100 g/ha); for pest or weed control at 5 µg/cm2, 500 g/ha: 5 μg/cm^2 (=500 g/ha)
Outline: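 Acetone solutions were coated onto glass tube walls (900 ppm gives 5 μg/cm²); after drying, 20–50 pyrethroid-resistant Parkhurst larvae added and held at 27 °C, 85% RH. At 48 h, efficacy as % larvae dead or moribund, judged by loss of negative geotaxis.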

[5] = test system: adult cat fleas (Ctenocephalides felis); assay: Ctenocephalides felis in-vitro contact test, adult cat flea; conditions: after 48 hours, read-out: efficacy (fleas dead or moribund); for pest or weed control at 5 µg/cm2, 500 g/ha: 5 μg/cm^2 (=500 g/ha); for pest or weed control at 1 µg/cm2, 100 g/ha: 1 μg/cm^2 (=100 g/ha)
Description: Ctenocephalides felis—In-Vitro Contact Tests Adult Cat Flea
as §1, with “1 ml” for “1 mL”, “250 μL” for “250”
as §2, with “cat fleas (Ctenocephalides felis),” for “brown dog ticks (Rhipicephalus sanguineus),”, “fleas” for “ticks”, “fleas,” for “ticks,”
An efficacy of 100% means all fleas are dead or moribund; 0% means no fleas are dead or moribund.

[6] = test system: adult engorged female ticks (Rhipicephalus microplus); assay: Rhipicephalus (Boophilus) microplus injection test; conditions: 168 h, 4 μg/animal, egg deposition after 7 days, read-out: efficacy (infertile eggs)
Description: Rhipicephalus (Boophilus) microplus—Injection Test
(§3) Solvent: dimethyl sulfoxide
To produce a suitable preparation of active compound, 10 mg of active compound are dissolved in 0.5 mL solvent, and the concentrate is diluted with solvent to the desired concentration.
Five adult engorged female ticks (Rhipicephalus microplus) are injected with 1 μL compound solution into the abdomen. The ticks are transferred into replica plates and incubated in a climate chamber.
After 7 days egg deposition of fertile eggs is monitored. Eggs where fertility is not visible are stored in a climate chamber till hatching after about 42 days. An efficacy of 100% means all eggs are infertile; 0% means all eggs are fertile.

[7] = test system: adult unfed cat fleas (Ctenocephalides felis); assay: Ctenocephalides felis oral test; conditions: 48 h, 100 ppm in citrated cattle blood, after 2 days
Description: Ctenocephalides felis—Oral Test
as §3
To produce a suitable preparation of active compound, 10 mg of active compound are dissolved in 0.5 mL solvent, and the concentrate is diluted with citrated cattle blood to the desired concentration.
Approximately 20 adult unfed cat fleas (Ctenocephalides felis) are placed in a flea chamber whose top and bottom is covered with gauze. A chamber whose bottom is sealed with parafilm, is filled with the blood-compound solution and placed on top of the flea chamber, so that the fleas can suck the blood. The blood chamber is heated to 37° C. whereas the flea chamber is kept at room temperature.
After 2 days mortality in % is determined. 100% means all the fleas have been killed; 0% means none of the fleas have been killed.

SMILES	mortality at 100 g/ha [1] [%]	pest or weed control at 5 µg/cm2, 500 g/ha [2] [%]	pest or weed control at 6.4 µg/disc, 20 g/ha [3] [%]	pest or weed control at 32 µg/disc, 100 g/ha [3] [%]	pest or weed control at 1 µg/cm2, 100 g/ha [4] [%]	pest or weed control at 5 µg/cm2, 500 g/ha [4] [%]	pest or weed control at 5 µg/cm2, 500 g/ha [5] [%]	pest or weed control at 0.004 mg [6] [%]	mortality at 100 ppm [7] [%]	pest or weed control at 1 µg/cm2, 100 g/ha [5] [%]
CC(NC(=O)c1cc(Cl)cc(S(C)(=O)=O)c1)c1nccnc1-n1cc(C#N)cn1 (racemic) [Example I-103, (rac)-3-Chloro-N-{1-[3-(4-cyano-1H-pyrazol-1-yl)pyrazin-2-yl]ethyl}-5-(methanesulfonyl)benzamide]	100	80	100	100	90	90	80			
CC(NC(=O)c1cc(Br)cc(OC(F)(F)F)c1)c1nccnc1-c1nccs1 (racemic) [Example I-53, (rac)-3-Bromo-N-{1-[3-(1,3-thiazol-2-yl)pyrazin-2-yl]ethyl}-5-(trifluoromethoxy)benzamide]			80	100				80		
CC(NC(=O)c1cc(C#N)cc(C(F)(F)F)c1)c1nccnc1-c1ccc(Cl)cn1 (centres unmarked) [Example I-25]	100		100	100				80	90	
CC(NC(=O)c1cc(Cl)cc(OC(F)(F)F)c1)c1nccnc1-c1ccc(Cl)cn1 (centres unmarked) [Example I-21]	100		100	100				80		
CC(NC(=O)c1cc(C#N)cc(C(F)(F)F)c1)c1nccnc1-c1ccccn1 (centres unmarked) [Example I-15]				100	80	80		80	100	
CC(NC(=O)c1cc(C(F)(F)F)cc(C(F)(F)F)c1)c1nccnc1-c1nccs1 (racemic) [Example I-5, (rac)-N-(1-(3-(Thiazol-2-yl)pyrazin-2-yl)ethyl)-3,5-bis(trifluoromethyl)benzamide]				80	100	100		80	90	
CC(NC(=O)c1cc(Br)cc(C#N)c1)c1nccnc1-c1ccccn1 (centres unmarked) [Example I-16]		80		100					100	
CC(NC(=O)c1cncc(C(C)(C)C)c1)c1nccnc1-c1ncccn1 (racemic) [Example I-11, (rac)-5-(tert-Butyl)-N-(1-(3-(pyrimidin-2-yl)pyrazin-2-yl)ethyl)nicotinamide]						100			90	
CC(NC(=O)c1cc(Cl)cc(C#N)c1)c1nccnc1-c1ccc(Cl)cn1 (centres unmarked) [Example I-23]	100							100	100	
CC(NC(=O)c1cc(C#N)cc(C(F)(F)F)c1)c1nccnc1-c1nccs1 (racemic) [Example I-56, (rac)-3-Cyano-N-{1-[3-(1,3-thiazol-2-yl)pyrazin-2-yl]ethyl)-5-(trifluoromethyl)benzamide]	100		100	100				100		
CC(NC(=O)c1cc(C(F)(F)F)cc(C(F)(F)F)c1)c1nccnc1-c1ncc(C(=O)N2CCCCC2)s1 (racemic) [Example I-64, (rac)-N-[1-{3-[5-(Piperidine-1-carbonyl)-1,3-thiazol-2-yl]pyrazin-2-yl}ethyl]-3,5-bis(trifluoromethyl)benzamide]		100			100	100	100	100		100
CC(NC(=O)c1cc(C(F)(F)F)cc(C(F)(F)F)c1)c1nccnc1-c1ncc(C(=O)N2C[C@@H](C)O[C@@H](C)C2)s1 (mixture of isomers) [Example I-66, (rac)-N-[1-(3-{5-[(cis)-2,6-Dimethylmorpholine-4-carbonyl]-1,3-thiazol-2-yl}pyrazin-2-yl)ethyl]-3,5-bis(trifluoromethyl)benzamide]	100	80	100	100	100	100	100	80		100
CC(NC(=O)c1cc(C(F)(F)F)cc(C(F)(F)F)c1)c1nccnc1-c1ncc(C(=O)N2CCCOCC2)s1 (racemic) [Example I-68, (rac)-N-[1-{3-[5-(1,4-Oxazepane-4-carbonyl)-1,3-thiazol-2-yl]pyrazin-2-yl}ethyl]-3,5-bis(trifluoromethyl)benzamide]		100		100	100	100	100			100
CC(NC(=O)c1cc(Cl)cc(C(F)(F)F)c1)c1nccnc1-c1ccccn1 (racemic) [Example I-1, (rac)-3-Chloro-N-{1-[3-(pyridin-2-yl)pyrazin-2-yl]ethyl}-5-(trifluoromethyl)benzamide]	100			100	100				90	
CC(NC(=O)c1cc(Cl)cc(C(F)(F)F)c1)c1nccnc1-c1nccs1 (racemic) [Example I-3, (rac)-3-Chloro-N-(1-(3-(thiazol-2-yl)pyrazin-2-yl)ethyl)-5-(trifluoromethyl)benzamide]			80	100				100	90	
CC(NC(=O)c1cc(Cl)cc(OC(F)(F)F)c1)c1nccnc1-c1ccccn1 (centres unmarked) [Example I-12]	83		100	100					100	
CC(NC(=O)c1cc(Cl)cc(Br)c1)c1nccnc1-c1ccccn1 (centres unmarked) [Example I-14]			80	80	90	80		80	100	
